Assay results as given in patent US10702506B2, “Small molecule inhibitors of pendrin ion exchange and pharmaceutical compositions” (THE REGENTS OF THE UNIVERSITY OF CALIFORNIA, priority 2016, dated 2020).

Biological target: T1, pendrin (Homo sapiens, UniProt O43511)
T1 sequence (O43511 1-780): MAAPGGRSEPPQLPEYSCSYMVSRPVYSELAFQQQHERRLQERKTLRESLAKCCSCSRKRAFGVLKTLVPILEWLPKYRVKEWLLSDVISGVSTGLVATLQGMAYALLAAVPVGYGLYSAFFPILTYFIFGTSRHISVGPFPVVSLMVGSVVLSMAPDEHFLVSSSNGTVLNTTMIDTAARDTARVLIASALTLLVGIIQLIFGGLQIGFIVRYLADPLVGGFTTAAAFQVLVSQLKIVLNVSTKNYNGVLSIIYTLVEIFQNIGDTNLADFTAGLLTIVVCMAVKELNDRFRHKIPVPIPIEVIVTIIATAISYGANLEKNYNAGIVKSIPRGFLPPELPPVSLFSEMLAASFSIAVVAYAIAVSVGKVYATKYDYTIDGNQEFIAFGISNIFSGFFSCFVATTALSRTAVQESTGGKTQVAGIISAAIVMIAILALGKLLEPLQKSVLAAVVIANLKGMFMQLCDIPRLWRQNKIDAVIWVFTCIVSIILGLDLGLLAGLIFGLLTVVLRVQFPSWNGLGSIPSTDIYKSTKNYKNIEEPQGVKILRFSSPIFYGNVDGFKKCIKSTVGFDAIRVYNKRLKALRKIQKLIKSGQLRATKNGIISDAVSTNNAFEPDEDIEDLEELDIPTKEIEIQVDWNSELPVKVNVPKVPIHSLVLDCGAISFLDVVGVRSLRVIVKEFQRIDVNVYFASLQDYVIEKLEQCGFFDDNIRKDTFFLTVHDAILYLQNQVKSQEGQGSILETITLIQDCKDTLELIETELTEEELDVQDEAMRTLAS
Assay: BCECF assay of Cl−/HCO3− exchange in primary HBE and CFBE cell cultures
Format: cell-based
Set-up: endogenous in cells; host or cells: primary human bronchial epithelial cultures from non-CF (HBE) and CF (CFBE) donors, with or without IL-13
Conditions: 25 μM
Protocol: Bronchial tissues were obtained from non-CF (without significant airway disease) and CF subjects following lung transplantation, or from lungs donated for transplantation but subsequently found to be unsuitable for that purpose. Non-CF and CF human bronchial epithelial (HBE and CFBE, respectively) cell cultures were grown at an air-liquid interface as described in detail. At 21 days post-seeding, cells typically formed a tight epithelium (RTE>1000 Ωcm^2). In some experiments, the culture medium was supplemented with 10 ng/ml recombinant human IL-13 (Peprotech, Rocky Hill, N.J.) for 7 days starting at day 21 of culture. […] Pendrin transcript levels in human primary cells were measured by Taqman quantitative PCR using the Hs00166504_m1 probe set (ThermoFisher Scientific, Grand Island, N.Y.) at the UCSF Helen Diller Cancer Center Genome Analysis Core. […]
Cytoplasmic pH (pHi) was measured to assay pendrin-mediated Cl^−/HCO3^− exchange in pendrin-expressing FRT cells and primary cell cultures using the pH-sensitive fluorescent probe BCECF. […] BCECF pH-sensitive fluorescence (490 nm excitation, 535 nm emission) was acquired at 0.5 Hz, with control experiments confirming that BCECF pH-insensitive fluorescence was not altered during exchange protocols. In some experiments pHi changes in the absence of HCO3^− were measured using buffers in which NaCl or Na gluconate replaced NaHCO3^−. […]

effect on intracellular alkalinization in response to gluconate gradient, IL-13-treated cultures (IL-13-treated): inhibited | effect on pH changes in response to gluconate gradient, control cultures (no added IL-13, 30 min): not altered
Compound: Cn1nc(COc2cccc(F)c2)c2c1CCN(C(=O)Nc1ccc(Cl)cc1)C2 [PDSinh-A01]
